Laboratory results from ChEMBL document CHEMBL1201862, “PubChem BioAssay data set” (2004).
Each block holds one molecule with its values, some of them ahead of it. Active and inactive are the calls of the source.

Assays:
[1] = target: T1, Caspase-7 (Homo sapiens, UniProt P55210); assay: human caspase-7 inhibitors, dose response, selectivity assay for caspase-6 inhibitor project, biochemical, DEVD-R110 fluorescence, cherry-pick (AID 743295)
T1 sequence (P55210 whole entry): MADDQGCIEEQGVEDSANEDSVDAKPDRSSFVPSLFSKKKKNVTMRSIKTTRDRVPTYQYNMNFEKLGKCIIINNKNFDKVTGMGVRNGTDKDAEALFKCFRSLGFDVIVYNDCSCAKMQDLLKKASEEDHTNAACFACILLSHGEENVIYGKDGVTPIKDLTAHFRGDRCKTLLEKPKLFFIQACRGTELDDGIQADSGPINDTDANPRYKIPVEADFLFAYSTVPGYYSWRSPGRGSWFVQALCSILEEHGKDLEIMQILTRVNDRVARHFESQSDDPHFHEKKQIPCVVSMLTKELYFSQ

[2] = target: T2, Microphthalmia-associated transcription factor (Homo sapiens, UniProt O75030); assay: TRPM1 promoter luciferase signal decrease, dose response, MITF inhibitor project, cell-based, SK-MEL-5, cherry-picked, set 3 (AID 493073); format: functional
T2 sequence (O75030 whole entry): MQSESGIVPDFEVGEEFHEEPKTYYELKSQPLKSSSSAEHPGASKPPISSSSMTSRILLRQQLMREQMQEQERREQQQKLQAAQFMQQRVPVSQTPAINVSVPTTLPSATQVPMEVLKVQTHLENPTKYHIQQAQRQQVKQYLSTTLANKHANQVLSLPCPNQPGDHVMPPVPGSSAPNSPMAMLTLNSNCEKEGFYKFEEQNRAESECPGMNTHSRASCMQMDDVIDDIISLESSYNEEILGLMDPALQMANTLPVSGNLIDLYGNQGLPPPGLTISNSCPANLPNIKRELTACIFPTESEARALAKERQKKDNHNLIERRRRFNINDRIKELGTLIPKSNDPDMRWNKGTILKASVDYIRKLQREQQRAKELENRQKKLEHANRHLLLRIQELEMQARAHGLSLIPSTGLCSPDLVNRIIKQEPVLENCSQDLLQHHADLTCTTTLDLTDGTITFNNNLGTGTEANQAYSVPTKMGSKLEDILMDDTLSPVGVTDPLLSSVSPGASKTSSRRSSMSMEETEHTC

[3] = target: Serine/threonine-protein phosphatase PP1-alpha catalytic subunit (Homo sapiens, UniProt P62136); assay: PP1 phosphatase inhibitors, dose response, biochemical, fluorescence (AID 2394)
[4] = target: Serine/threonine-protein phosphatase (Homo sapiens, UniProt Q9BPW0); assay: PP5 phosphatase inhibitors, dose response, biochemical, fluorescence (AID 2395)
[5] = target: Tyrosine-protein kinase Fyn (Homo sapiens, UniProt P06241); format: functional
[6] = target: Cyclin-dependent kinase 8 (Homo sapiens, UniProt P49336); assay: Navigating the Kinome. Panel member name: CDK8; format: functional
[7] = target: Cyclin-dependent kinase 1 (Homo sapiens, UniProt P06493); format: functional;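 also: Kinome-wide panel profiling, with the target listed as panel member CDC2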
[8] = target: Serine/threonine-protein kinase PLK3 (Homo sapiens, UniProt Q9H4B4); format: functional
Chain of Serine/threonine-protein kinase PLK3 (Q9H4B4 whole entry): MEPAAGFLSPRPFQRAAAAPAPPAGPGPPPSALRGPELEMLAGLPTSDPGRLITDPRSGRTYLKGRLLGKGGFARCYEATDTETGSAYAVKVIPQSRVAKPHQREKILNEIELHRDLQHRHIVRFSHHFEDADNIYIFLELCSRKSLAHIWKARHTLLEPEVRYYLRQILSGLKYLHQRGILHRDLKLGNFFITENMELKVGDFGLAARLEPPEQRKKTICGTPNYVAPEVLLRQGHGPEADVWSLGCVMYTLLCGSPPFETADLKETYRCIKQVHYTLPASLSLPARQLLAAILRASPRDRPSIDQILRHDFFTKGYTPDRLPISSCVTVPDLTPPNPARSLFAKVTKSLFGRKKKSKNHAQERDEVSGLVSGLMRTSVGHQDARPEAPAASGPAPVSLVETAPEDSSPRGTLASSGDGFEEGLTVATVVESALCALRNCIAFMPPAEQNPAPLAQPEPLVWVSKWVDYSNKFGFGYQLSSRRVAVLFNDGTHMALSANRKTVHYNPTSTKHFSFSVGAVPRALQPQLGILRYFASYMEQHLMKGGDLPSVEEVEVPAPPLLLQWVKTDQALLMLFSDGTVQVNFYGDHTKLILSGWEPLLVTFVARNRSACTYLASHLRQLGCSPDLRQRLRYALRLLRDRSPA

[9] = target: Rho-associated protein kinase 1 (Homo sapiens, UniProt Q13464); format: functional;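 also: measured within a broad kinome-wide panel profiling many kinases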
[10] = target: Aurora kinase B (Homo sapiens, UniProt Q96GD4); format: functional
Chain of Aurora kinase B (Q96GD4 whole entry): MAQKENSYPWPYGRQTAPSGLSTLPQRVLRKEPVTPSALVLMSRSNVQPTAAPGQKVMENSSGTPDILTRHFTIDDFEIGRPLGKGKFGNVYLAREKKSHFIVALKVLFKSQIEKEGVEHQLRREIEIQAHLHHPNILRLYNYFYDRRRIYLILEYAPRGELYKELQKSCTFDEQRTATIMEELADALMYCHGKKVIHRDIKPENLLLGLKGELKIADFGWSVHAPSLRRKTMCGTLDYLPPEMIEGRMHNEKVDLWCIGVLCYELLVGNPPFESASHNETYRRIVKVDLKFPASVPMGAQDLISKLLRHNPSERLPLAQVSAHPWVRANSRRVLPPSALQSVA

[11] = target: cAMP-dependent protein kinase catalytic subunit PRKX (Homo sapiens, UniProt P51817); format: functional
[12] = target: MAP/microtubule affinity-regulating kinase 3 (Homo sapiens, UniProt P27448); format: functional;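 also: MARK3 affinity measured as one member of a kinome panel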
Chain of MAP/microtubule affinity-regulating kinase 3 (P27448 whole entry): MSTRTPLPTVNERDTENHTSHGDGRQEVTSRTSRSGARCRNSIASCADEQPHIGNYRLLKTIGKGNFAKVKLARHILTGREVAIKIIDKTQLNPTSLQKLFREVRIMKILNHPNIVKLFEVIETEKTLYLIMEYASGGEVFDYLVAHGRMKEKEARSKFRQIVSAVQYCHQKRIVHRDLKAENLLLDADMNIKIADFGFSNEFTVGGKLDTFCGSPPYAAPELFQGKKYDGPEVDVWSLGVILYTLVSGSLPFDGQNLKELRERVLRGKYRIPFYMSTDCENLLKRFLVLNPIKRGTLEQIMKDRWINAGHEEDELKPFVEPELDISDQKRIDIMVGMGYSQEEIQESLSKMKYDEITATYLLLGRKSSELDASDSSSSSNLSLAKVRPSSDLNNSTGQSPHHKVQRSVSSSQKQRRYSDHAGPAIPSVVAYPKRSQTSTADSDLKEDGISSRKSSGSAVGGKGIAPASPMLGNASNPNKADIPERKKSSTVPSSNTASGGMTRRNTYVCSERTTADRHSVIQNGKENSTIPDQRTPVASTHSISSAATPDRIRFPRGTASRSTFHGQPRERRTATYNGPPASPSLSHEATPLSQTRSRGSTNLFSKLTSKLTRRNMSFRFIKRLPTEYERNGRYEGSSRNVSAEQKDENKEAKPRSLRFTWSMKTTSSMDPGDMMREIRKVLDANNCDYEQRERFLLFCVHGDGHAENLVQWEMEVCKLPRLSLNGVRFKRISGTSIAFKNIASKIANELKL

[13] = target: Macrophage colony-stimulating factor 1 receptor (Homo sapiens, UniProt P07333); format: functional;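 also: value comes from the Navigating the Kinome screening panel, CSF1R member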
Chain of Macrophage colony-stimulating factor 1 receptor (P07333 whole entry): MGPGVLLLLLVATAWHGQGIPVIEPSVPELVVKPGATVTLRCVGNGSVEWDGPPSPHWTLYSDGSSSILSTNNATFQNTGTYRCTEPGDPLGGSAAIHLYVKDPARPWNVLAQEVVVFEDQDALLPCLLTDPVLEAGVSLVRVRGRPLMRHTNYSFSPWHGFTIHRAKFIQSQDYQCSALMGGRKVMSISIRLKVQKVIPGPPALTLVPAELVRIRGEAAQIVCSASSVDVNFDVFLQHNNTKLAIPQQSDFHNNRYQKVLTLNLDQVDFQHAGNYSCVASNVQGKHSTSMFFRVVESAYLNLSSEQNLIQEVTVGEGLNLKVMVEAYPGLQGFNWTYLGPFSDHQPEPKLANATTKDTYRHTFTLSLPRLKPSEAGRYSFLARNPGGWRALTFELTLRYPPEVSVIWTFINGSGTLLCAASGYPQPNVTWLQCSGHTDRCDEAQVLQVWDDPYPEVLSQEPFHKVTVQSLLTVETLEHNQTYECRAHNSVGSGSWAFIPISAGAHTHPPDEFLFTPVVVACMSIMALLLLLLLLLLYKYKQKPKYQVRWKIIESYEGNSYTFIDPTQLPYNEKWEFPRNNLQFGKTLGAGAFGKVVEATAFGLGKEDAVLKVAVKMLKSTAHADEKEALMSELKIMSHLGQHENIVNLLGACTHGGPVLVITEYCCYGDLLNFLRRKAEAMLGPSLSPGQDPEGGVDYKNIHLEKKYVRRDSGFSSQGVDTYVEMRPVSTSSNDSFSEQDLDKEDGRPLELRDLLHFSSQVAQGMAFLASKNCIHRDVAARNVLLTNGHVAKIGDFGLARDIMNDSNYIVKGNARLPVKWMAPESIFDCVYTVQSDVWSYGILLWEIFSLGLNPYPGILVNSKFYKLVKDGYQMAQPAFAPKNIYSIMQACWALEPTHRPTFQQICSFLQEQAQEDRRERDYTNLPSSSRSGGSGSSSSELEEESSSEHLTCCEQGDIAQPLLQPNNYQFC

[14] = target: Tyrosine-protein kinase FRK (Homo sapiens, UniProt P42685); format: functional;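 also: FRK tested as one member of a kinome panel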
[15] = target: Maternal embryonic leucine zipper kinase (Homo sapiens, UniProt Q14680); format: functional
[16] = target: ALK tyrosine kinase receptor (Homo sapiens, UniProt Q9UM73); format: functional;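 also: ALK tested as one member of a kinase panel screen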
Chain of ALK tyrosine kinase receptor (Q9UM73 whole entry): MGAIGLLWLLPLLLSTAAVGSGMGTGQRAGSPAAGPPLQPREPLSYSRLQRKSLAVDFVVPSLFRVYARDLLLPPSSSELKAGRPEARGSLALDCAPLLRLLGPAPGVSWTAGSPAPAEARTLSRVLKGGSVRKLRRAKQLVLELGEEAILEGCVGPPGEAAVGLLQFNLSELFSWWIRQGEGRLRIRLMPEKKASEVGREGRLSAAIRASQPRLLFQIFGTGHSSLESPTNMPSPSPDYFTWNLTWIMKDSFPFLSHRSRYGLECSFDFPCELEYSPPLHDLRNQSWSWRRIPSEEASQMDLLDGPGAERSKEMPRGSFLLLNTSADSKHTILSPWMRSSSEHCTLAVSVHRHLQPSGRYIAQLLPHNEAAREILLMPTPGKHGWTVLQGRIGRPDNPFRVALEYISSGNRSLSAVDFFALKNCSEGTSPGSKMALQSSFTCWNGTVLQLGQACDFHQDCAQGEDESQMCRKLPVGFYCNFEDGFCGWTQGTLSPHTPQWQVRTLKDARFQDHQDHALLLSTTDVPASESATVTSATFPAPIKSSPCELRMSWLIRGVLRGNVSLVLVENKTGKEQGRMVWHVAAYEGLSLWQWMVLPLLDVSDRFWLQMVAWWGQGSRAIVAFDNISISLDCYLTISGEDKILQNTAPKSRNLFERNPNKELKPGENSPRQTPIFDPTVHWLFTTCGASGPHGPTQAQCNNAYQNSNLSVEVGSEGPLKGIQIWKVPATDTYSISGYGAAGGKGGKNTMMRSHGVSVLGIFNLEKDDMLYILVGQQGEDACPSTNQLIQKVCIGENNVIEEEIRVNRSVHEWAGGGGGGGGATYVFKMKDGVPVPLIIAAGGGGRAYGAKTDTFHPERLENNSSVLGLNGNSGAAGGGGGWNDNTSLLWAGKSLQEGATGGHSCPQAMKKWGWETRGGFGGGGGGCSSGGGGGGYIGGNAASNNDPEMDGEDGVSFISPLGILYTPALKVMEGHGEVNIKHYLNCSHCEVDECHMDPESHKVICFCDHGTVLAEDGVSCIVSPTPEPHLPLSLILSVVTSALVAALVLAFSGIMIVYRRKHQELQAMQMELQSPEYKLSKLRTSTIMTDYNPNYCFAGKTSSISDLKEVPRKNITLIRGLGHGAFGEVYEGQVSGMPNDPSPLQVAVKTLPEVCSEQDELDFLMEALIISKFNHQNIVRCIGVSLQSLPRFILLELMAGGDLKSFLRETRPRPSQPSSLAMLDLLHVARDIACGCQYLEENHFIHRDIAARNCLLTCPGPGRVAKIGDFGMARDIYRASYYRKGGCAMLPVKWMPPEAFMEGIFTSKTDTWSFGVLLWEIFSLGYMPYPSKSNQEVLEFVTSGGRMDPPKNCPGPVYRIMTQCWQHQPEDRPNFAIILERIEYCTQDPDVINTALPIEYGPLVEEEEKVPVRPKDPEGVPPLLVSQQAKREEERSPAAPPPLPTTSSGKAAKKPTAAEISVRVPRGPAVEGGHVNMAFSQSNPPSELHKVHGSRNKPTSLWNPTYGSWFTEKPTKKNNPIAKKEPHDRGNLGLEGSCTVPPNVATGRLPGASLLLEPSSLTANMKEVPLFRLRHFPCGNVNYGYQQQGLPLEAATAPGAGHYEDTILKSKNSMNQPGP

[17] = target: Fibroblast growth factor receptor 3 (Homo sapiens, UniProt P22607); format: functional
[18] = target: Tyrosine-protein kinase Blk (Homo sapiens, UniProt P51451); format: functional;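 also: obtained as one member of a kinome-wide kinase assay panel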
Chain of Tyrosine-protein kinase Blk (P51451 whole entry): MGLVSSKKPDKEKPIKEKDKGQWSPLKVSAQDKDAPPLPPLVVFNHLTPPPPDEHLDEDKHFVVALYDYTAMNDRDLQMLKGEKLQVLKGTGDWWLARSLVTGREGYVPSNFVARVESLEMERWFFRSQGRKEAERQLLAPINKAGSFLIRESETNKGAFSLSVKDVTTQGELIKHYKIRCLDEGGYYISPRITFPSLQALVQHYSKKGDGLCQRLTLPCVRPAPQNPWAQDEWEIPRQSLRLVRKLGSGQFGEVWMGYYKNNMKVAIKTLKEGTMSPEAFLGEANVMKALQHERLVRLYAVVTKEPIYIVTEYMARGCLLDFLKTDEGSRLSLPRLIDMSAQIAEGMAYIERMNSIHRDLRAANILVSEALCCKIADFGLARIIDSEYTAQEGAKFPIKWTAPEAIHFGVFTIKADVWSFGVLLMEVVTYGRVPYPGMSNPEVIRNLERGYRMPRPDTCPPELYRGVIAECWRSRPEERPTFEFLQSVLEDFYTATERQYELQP

SMILES: Cc1c(NC(=O)C(C)OC(=O)c2ccc([N+](=O)[O-])s2)c(=O)n(-c2ccccc2)n1C (stereo not drawn)
- AC50 [1]: 17.5 µM (active)
- AC50 [2]: 34.1 µM (active)

SMILES: COc1cc(Br)c(C(=O)c2nccc3cc(OC)c(OC)cc23)cc1OC
- IC50 [3]: 52.1 µM (not active)
- IC50 [4]: 5.92 µM (active)

- Ki [5]: > 3.98 µM (inactive)
- Ki [6]: 0.501 µM (active)
- Ki [7]: 0.631 µM (active)
- Ki [8]: > 7.94 µM (inactive)
- Ki [9]: 0.158 µM (active)
- Ki [10]: 1 µM (active)
- Ki [11]: 0.501 µM (active)
- Ki [12]: > 5.01 µM (inactive)
- Ki [13]: > 2.51 µM (inactive)
- Ki [14]: > 2.51 µM (inactive)
- Ki [15]: > 1.58 µM (inactive)
- Ki [16]: 2 µM (active)
- Ki [17]: > 2 µM (inactive)
- Ki [18]: > 1.58 µM (inactive)
SMILES: CC(N)C1CCC(C(=O)Nc2ccnc3[nH]ccc23)CC1 (stereo not drawn)
